Source: patent publication US11547699B2, “[2-[(5-nitro-1,3-thiazol-2-yl)carbamoyl]phenyl]ethanoate for use in lymphangioleiomyomatosis and other diseases” (priority 2017, dated 2023)

Key:
[1] = test system: phosphorylation of the ribosomal protein S6 in MEF cells; test: rpS6 phosphorylation in MEF cells (ELISA and Western blotting), read-out for mTOR pathway activity; type: cell-based, mouse; conditions: 60 minutes incubation
Excerpt: These assays are used to test the effect of a compound on the activity of the mTOR pathway. Phosphorylation of ribosomal protein rp60 is used as read-out for mTOR pathway activity. […] Thus, these assays mimic a disease causative mechanism.
MEFs are mouse embryo fibroblasts derived from TSC2 knockout (MEF110) and TSC2+ (MEF157) mice. Tsc2 mutations are known to cause tuberous sclerosis and lymphangioleiomyomatosis in humans.
All cells were maintained in DMEM tissue culture medium, with the addition of fetal calf serum to 10% to support cell proliferation, at 37° C. and 5% CO2.
In MEFs, ribosomal protein S6, which is a component of the 40S ribosome, and phosphorylated at Ser236 by p70 S6 kinase can be assayed by ELISA and Western blotting, using phospho-specific antibodies which detect both the human and the mouse forms of rpS6. This assay is predicitve of compounds with protective or therapetic activities for respiratory and vascular diseases, fibrotic diseases, or neurodegenerative diseases.
Cells were grown to 60-80% confluence in DMEM+10% serum. Medium was replaced with fresh serum free medium two hours before addition of test compound of the invention.
Compound was added as a 1:1000 dilution of the stock solution in DMSO. DMSO was added as a vehicle control, and samples were incubated for a further 60 minutes. […]

[2] = test system: phosphorylation of the ribosomal protein S6 in 621-101 cells; test: rpS6 phosphorylation in 621-101 cells (ELISA and Western blotting), read-out for mTOR pathway activity; type: cell-based, human; conditions: 60 minutes incubation
Procedure: These assays are used to test the effect of a compound on the activity of the mTOR pathway. Phosphorylation of ribosomal protein rp60 is used as read-out for mTOR pathway activity. […] Thus, these assays mimic a disease causative mechanism. 621-101 cells are human cells derived from an angiomyolipoma. They have verified TSC2 mutations and are the only disease-derived mutation-bearing cells used that are mimicking the disease Lymphangioleiomyomitosis. Cells were grown to 60-80% confluence in DMEM+10% serum. Medium was replaced with fresh serum free medium two hours before addition of test compound of the invention. Compound was added as a 1:1000 dilution of the stock solution in DMSO. DMSO was added as a vehicle control, and samples were incubated for a further 60 minutes. For ELISA, cells were harvested into 200 ul cell lysis buffer containing both protease and phosphatase inhibitors, to protect the phosphorylation status of rpS6. Lysates were stored at −80° C. prior to use. 50 ul of lysate per sample was used for the ELISA, which was carried out according to manufacturers' instructions. For Western blotting, cells were harvested into 200 ul cell lysis buffer containing both protease and phosphatase inhibitors and resolved by SDS-PAGE before transfer to PVDF membrane and incubation with anti-phospho-rpS6 and anti-total-rpS6 antibodies.

## CC(=O)Oc1ccccc1C(=O)Nc1ncc([N+](=O)[O-])s1 [the compound of the invention, [2-[(5-nitro-1,3-thiazol-2-yl)carbamoyl]phenyl]ethanoate]
[1]
  tolerability by the cells: well tolerated
[2]
  tolerability by the cells: well tolerated
